Measured values: patent US10976310B2, “Ligand identification by co-fractionation” (MAX-PLANCK-GESELLSCHAFT ZUR FÖRDERUNG DER WISSENSCHAFTEN …, priority 2016, dated 2021)
Values joined by “and” are separate entries in the source; they are usually repeats but may differ in a detail not shown here. Equal entries are not always repeated.

Assays:
TIA1 = biological target: T1, TIA1 (Homo sapiens, UniProt P31483); test: MST measurement of ligand binding to recombinant TIA1; details: recombinant TIA1, n=3
T1 construct: purchased Origene (Herford, Germany)
T1 sequence (P31483 1-386): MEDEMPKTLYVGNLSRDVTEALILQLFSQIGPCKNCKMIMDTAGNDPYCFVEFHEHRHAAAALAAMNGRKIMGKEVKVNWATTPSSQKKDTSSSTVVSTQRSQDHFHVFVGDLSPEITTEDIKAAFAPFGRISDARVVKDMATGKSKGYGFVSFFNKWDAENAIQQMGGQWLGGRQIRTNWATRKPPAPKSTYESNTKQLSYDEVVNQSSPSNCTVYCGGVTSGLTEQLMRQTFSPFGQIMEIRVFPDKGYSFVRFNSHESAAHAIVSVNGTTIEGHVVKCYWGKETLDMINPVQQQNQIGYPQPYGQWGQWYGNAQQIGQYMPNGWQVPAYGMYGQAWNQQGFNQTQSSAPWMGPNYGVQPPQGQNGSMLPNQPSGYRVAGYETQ
Method: (§1) Expecting such a basic role of 2′,3′-cAMP to be conserved, we performed similar analysis with TIA1, the human functional homolog of Rbp47b. TIA1 was labeled and its interaction with 2′,3′-cAMP was determined using MST.
TIA1 protein was purchased from Origene (Herford, Germany). Rbp47b was cloned as a C-terminal GFP fusion (to increase protein solubility) into the E. coli expression vector pDEST14 containing His6-tag at the N-terminal of the Gateway (Karlsruhe, Germany) cassette. Rosetta cells expressing His6-Rbp47b-GFP were grown at 28° C. overnight and next day were moved to Terrific Broth medium supplied with 1% sucrose and relevant antibiotics. Cultures at OD 0.4 were induced by addition of 0.1 mM IPTG and transferred to 16° C. for overnight incubation.
MST measurements were performed using a Monolith NT.115 instrument (NanoTemper, München, Germany). Capillaries were loaded into the instrument as sets of 13-16 point ligand titrations. Proteins (Rb47b and TIA1) were labeled in phosphate buffer (PBS) using Monolith™ protein labeling kit RED-NHS (amine reactive; MO-L001) according to the manufacturers instruction. Excitation was optimized by varying the LED power to yield emission intensities above 200 AU, corresponding to 10-50 nM labeled protein. Monolith power was set to 60%. Ligands [2′,3′-cAMP (Sigma A9376)] and [3′,5′-cAMP (Sigma A6885)] were dissolved in PBS. […]

Rbp47b self-assembly = biological target: T2, Rbp47b self-assembly (Arabidopsis thaliana, UniProt Q0WW84); test: MST measurement of Rbp47b self-assembly; format: binding; details: 50 μM 2′,3′-cAMP; in its absence Kd=127.87 nM (128 nM); read-out: Kd of Rbp47b self-assembly in the presence of the ligand
T2 construct: GFP (C, cleaved yes); made in house; host or cells: E. coli Rosetta
T2 sequence (Q0WW84 1-435): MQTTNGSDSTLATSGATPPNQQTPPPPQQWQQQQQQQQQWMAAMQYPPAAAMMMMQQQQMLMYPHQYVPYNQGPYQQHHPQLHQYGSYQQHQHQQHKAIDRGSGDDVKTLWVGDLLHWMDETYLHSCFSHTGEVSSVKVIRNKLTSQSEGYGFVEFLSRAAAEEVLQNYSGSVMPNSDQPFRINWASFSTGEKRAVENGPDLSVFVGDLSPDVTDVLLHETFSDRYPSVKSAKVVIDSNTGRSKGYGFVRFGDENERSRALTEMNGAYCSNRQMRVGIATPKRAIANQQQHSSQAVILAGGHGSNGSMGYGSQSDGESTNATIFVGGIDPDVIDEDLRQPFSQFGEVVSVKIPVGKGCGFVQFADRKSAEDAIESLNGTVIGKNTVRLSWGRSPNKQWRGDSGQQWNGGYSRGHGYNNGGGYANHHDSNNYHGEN
Description: In plants 2′,3′-cAMP levels increase rapidly under wounding stress (Van Damme (2014) (loc. cit.)). To test whether 2′,3′-cAMP level changes in other stress conditions we queried metabolomics date from stress time-course of (Caldana et al. (2011) High-density kinetic analysis of the metabolomic and transcriptomic response of Arabidopsis to eight environmental conditions. Plant J 67: 869-884). Shortly, mature Col-0 rosettes (prior bolting) grown in the control environment, were transferred into combinations of light (low light, high light, darkness) and temperature stress conditions (heat and cold) and sampled in multiple time-points until 24 h following stress onset. […] If the interaction takes place in the cytosol, where both, Rbp47b and 2′,3′-cAMP are present, one would expect that 2′,3′-cAMP might influence stress granules formation, meaning oligomerization of Rbp47b. Due to the lack of commercially available membrane permeable derivative of 2′,3′-cAMP molecule, we were unable to follow stress granules formation in vivo. However we tested this hypothesis directly by determining the oligomerization of Rbp47b in the presence and absence of saturating amounts of 2′,3′-cAMP by MST. […] 2′,3′-cAMP, besides being the degradation product of mRNA, could play a regulatory role by influencing the oligomerization of the Rbp47b protein, in turn influencing the formation of SGs. […]

TIA1 self-assembly = biological target: T3, TIA1 self-assembly (Homo sapiens, UniProt P31483); test: MST measurement of TIA1 self-assembly; format: binding; details: 500 μM 2′,3′-cAMP; in its absence Kd=36.28 nM (36 nM); read-out: Kd of TIA1 self-assembly in the presence of the ligand
T3 construct: purchased Origene (Herford, Germany)
T3 sequence (P31483 1-386): T1 sequence (P31483 1-386)
Method: as §1
MST measurements were performed using a Monolith NT.115 instrument (NanoTemper, München, Germany). Capillaries were loaded into the instrument as sets of 13-16 point ligand titrations. Proteins (Rb47b and TIA1) were labeled in phosphate buffer (PBS) using Monolith™ protein labeling kit RED-NHS (amine reactive; MO-L001) according to the manufacturers instruction. Excitation was optimized by varying the LED power to yield emission intensities above 200 AU, corresponding to 10-50 nM labeled protein. Monolith power was set to 60%. Ligands [2′,3′-cAMP (Sigma A9376)] and [3′,5′-cAMP (Sigma A6885)] were dissolved in PBS. 0.5% Tween and premium coated capillaries were used to prevent sticking. Non-labeled TIA1 and Rbp47b were used as ligands in the self-assembly experiments. MO Affinity Analysis software was used to analyze (Kd calculation) and visualize the data. Presented data are from 2-3 technical replicates.

Compound: Nc1ncnc2c1ncn2[C@@H]1O[C@H](CO)[C@H]2OP(=O)(O)O[C@H]21 [2′,3′-cAMP]
- Kd (TIA1): 217000 nM
- Kd (Rbp47b self-assembly): 8.9 nM and 9 nM
- Kd (TIA1 self-assembly): 20.6 nM and 20 nM
